The values that follow come from patent US20160160213A1, “METHODS OF TREATING CANCER AND PREVENTING CANCER DRUG RESISTANCE” (Genentech, Inc., priority 2013, published 2016).

“Also recorded” adds a separate entry of the source.

Usually IC50 stands for the concentration at which inhibition is half-maximal.

Assay [1] deals with H3K27me3 in EVSAT DTPs. Put plainly: Histone H3K27me3 Western blot in EVSAT DTPs treated with GDC-0908. In kind it is cell-based. The note with it: GSK126 0.1, 0.5, 2.5 μM, EPZ-6438 0.05, 0.1, 0.5 μM, GDC-0908 2 μM. Here is the method:
GDC-0908 concentration 2 μM for FIG. 21A and FIG. 21B.
(§1) Cell lysates were prepared in Laemmli sample buffer and analyzed by immunoblotting as described previously. Cell lysates were analyzed using commercial antibodies against modifications on H3 (Active Motif and Cell Signaling Technologies).
A general note: In western blotting, separated proteins are transferred to a membrane and probed.

Assay [2] has as its system H3K27me3 in PC9 DTPs. Put plainly: Histone H3K27me3 Western blot in PC9 DTPs treated with erlotinib. Conditions: GSK126 0.1, 0.5, 2.5 μM, EPZ-6438 0.05, 0.1, 0.5, 1, 1.5 μM, erlotinib 1 μM. It is filed as cell-based, human. Here is the method:
FIG. 20A, FIG. 20B, FIG. 20C and FIG. 20D | EZH2 inhibitors (GSK126) disrupt the drug-tolerant state. (A) Increase in histone H3K27me^3 in PC9 DTPs treated with erlotinib is inhibited by EZH2 small molecule inhibitor (GSK126) at 0.1, 0.5, and 2.5 μM as shown by Western blot. (B) nuc-red PC9 cells were treated with DMSO/erlotinib or GSK126/erlotinib at 0.1, 0.5, or 2.5 μM (dark grey bar) or without erlotinib (DMSO/Media or GSK126/Media) (light grey bar) and analyzed IncuCyte™ at day 9 and 3, respectively. (C) nuc-red PC9 cells were treated with DMSO/erlotinib or GSK126/erlotinib at 2.5 μM for 9 days and imaged. (D) nuc-red PC9 cells were treated with DMSO/erlotinib or GSK126/erlotinib at 2.5 μM for 30 days and stained with Giemsa. Erlotinib concentration 1 μM for FIG. 20A, FIG. 20B, FIG. 20C and FIG. 20D.
(D) nuc-red PC9 cells were treated with DMSO/erlotinib or […] at 0.05, 0.1, or 1.0 μM) for 30 days and stained with Giemsa. Erlotinib concentration 1 μM for FIG. 22A, FIG. 22B, FIG. 22C and FIG. 22D.
as §1

The subject of assay [3] is H3K27me3. Conditions: cited from earlier work.
The test system of assay [4] is PC9 DTP. Description: HDAC biased inhibitors on PC9 DTP with erlotinib, 30 days. It is filed as cell-based, human. Conditions: G946 50 nM, G877 5 μM, erlotinib 1 μM. An excerpt: FIG. 17A, FIG. 17B and FIG. 17C | HDAC (1), 2 and 3 are involved in the establishment of drug tolerance. siRNA against HDAC2 and 3 as well as inhibitors that are HDAC1/2 or 3 biased disrupt the drug-tolerant state. (A-B) Effect of siRNA knockdown of essential components of HDAC2 and HDAC3 on PC9 parental (light grey bars: media conditions) or DTP (dark grey: erlotinib condition) cell number using 4 different specific siRNAs per gene. Data are presented along with the data for the non-targeting (NTC) and siTOX controls in similar treatment conditions. (C) Effect of (C1) G946, HDAC1/2 biased inhibitor, and (C2) G877, HDAC3 biased inhibitor. G946 and G877 were tested at concentrations 50 nM and 5 μM, respectively. PC9 cells were treated with (DTP) (DMSO/erlotinib or HDAC inhibitor/erlotinib) (C1 and C2) for 30 days or without erlotinib (parental) (DMSO/Media or HDAC inhibitor/Media) (data not shown). Erlotinib concentration 1 μM.
To further investigate the role of HDACs in the establishment of drug tolerance, siRNA against HDAC2 and 3 as well as inhibitors that are HDAC1/2 or 3 biased were tested for their ability to disrupt the drug-tolerant state.

Assay [5] relates to PC9 cells. Description: DZNep cell treatment, PC9 parental/DTP cell viability (CyQUANT Direct). It is filed as cell-based, human. Here is the method:
DZNep was tested at concentrations ranging from 0.625 to 40 μM (A). PC9 cells were treated for 48 hours either with DZNep (DZNep/Media or DZNep/erlotinib) or DMSO control (DMSO/Media or DMSO/erlotinib) before treatment with (DTP) (DMSO/erlotinib or DZNep/erlotinib) or without erlotinib (parental)(DMSO/Media or DZNep/Media) for 72 hours. Cell number was determined after a 48-72 hours recovery phase in media alone. Effect of DZNep at 5 (B) and 0.625 μM (C) on PC9 parental (solid gray bars: media conditions) or DTP (diamond bars: erlotinib condition) cell number.
PC9 cells were seeded in black 96 well clear bottom plates (Coming, catalog #3603) at 1000 cells per well before to be treated with various concentration of 3-deazaneplanocin A (DZNep) from 40 down to 0.625 μM. After 48 hours of DZNep treatment the media was replaced with fresh media alone or in presence of 1 μM erlotinib. After 72 hours of incubation the media +/− erlotinib was then replaced with fresh media to enable recovery of the drug tolerant persisters (DTPs) that survived after the drug treatment. After 3 days recovery phase, final cell viability was measured using CyQUANT Direct cell proliferation assay (Molecular Probes) according to the manufacturer protocol. CyQUANT fluorescent signal was detected using a GE IN Cell Analyzer 2000 (4× objective) and quantified as number of cell per well using an image analysis algorithm developed using GE Developer Tollbox 1.9.1. Screening data were subsequently processed in Microsoft Excel. The entire Epi300 siRNA screen was run on each cell line twice in completely independent conditions.

Assay [6] concerns EZH2 levels and trimethylation of lysine 27 on histone H3. Conditions: cultured human acute myeloid leukemia, dose-dependent manner (0.2-1 μM); cited from earlier work.
Assay [7] concerns the target EZH2 (Homo sapiens, UniProt Q15910). The note with it: read-out: EZH2 Ki^app; cited from earlier work.
The subject of assay [8] is EVSAT DTP. Put plainly: EZH2 inhibitors on EVSAT DTP cell growth with PI3K inhibitor (IncuCyte). It is filed as cell-based. Conditions: GDC-0908 2 μM; GSK126 0.1, 0.5, 2.5 μM; EPZ-6438 0.05, 0.1, 0.5 μM.
Assay [9] relates to PC9 DTP. Put plainly: EZH2 inhibitors on PC9 DTP cell growth with erlotinib (IncuCyte, Giemsa). It is filed as cell-based, human. Conditions: erlotinib 1 μM; GSK126 0.1-2.5 μM; EPZ-6438 0.05-1.5 μM; day 9 and 30 days.
Method: (A) Effect of siRNA knockdown of EZH2 on PC9 parental (light grey bars: media conditions) or DTP (dark grey: erlotinib condition) cell number using 8 different specific siRNAs (Dharmacon siGenome (×4) and On-Target Plus (OTP)(×4)) per gene. […] (B) Effect of GSK126 was tested at a concentration 1 μM.
The subject of assay [10] is SKBR3 cells. Description: TSA on SKBR3 drug tolerant cells (radiotherapy or lapatinib). In kind it is cell-based. Conditions: SKBR3, 2.5 Gy and 10 Gy, 25 nM TSA. As for the experimental part: FIG. 16A, FIG. 16B and FIG. 16C | DTPs in a variety of models display increased sensitivity to HDAC inhibitors. (A) SKBR3 treated with 2.5 Gy in media alone or presence of 25 nM of the HDAC inhibitor TSA. (B) SKBR3 treated with 10 Gy in media alone or presence of 25 nM of the HDAC inhibitor TSA. (C) SKBR3 treated with 1 μM Lapatinib in media alone or presence of 25 nM of the HDAC inhibitor TSA.
The role of histone deacetylases was further test in additional models to elucidate their role in drug tolerance. The class I and II HDAC inhibitor TSA was tested in SKBR3 cells in combination with radiotherapy at 2.5 Gy and 10 Gy.

Assay [11] deals with PC9 xenografts. Description: PC9 xenograft tumor study. It is filed as in vivo. Conditions: nude mice. As for the experimental part:
FIG. 18 | Effect of HDAC Inhibition using TSA (0.5 mg/kg) on erlotinib response in PC9 xenografts.
PC9 cells were cultured in growth media (RPMI 1640, 10% heat-inactivated fetal calf serum, 2 mM L-glutamine) to 80% confluency and then trypsinized, washed once with PBS, and resuspended in either Hank's Balanced Salt Solution (HBSS) or a 1:1 mixture of HBSS with matrigel [growth factor reduced; catalog #356231 (BD Biosciences, West Grove, Pa.)] to a final concentration of 5×10^7 cells/ml. Each xenograft tumor model was established using 5×10^6 cells (100 μL) inoculated subcutaneously (s.c.) in the rear right flank of immunocompromised mice. PC-9 and PC-9-GFP cells were implanted in HBSS with matrigel in nude (nu/nu) mice (Charles River Laboratories, Hollister, Calif.). When tumor volumes reach approximately 100-200 mm^3, mice were separated into groups of animals with similarly sized tumors, and treatment was initiated the day after grouping. Mice were dosed for 5 days a week (QD) oral gavage (PO) with erlotinib (50 mg/kg in 7.5% Captisol for first 4 doses then lowered to 35 mg/kg in 7.5% Captisol) and/or TSA (0.5 mg/kg) with appropriate vehicle control. […]

Chain of EZH2 (Q15910 whole entry): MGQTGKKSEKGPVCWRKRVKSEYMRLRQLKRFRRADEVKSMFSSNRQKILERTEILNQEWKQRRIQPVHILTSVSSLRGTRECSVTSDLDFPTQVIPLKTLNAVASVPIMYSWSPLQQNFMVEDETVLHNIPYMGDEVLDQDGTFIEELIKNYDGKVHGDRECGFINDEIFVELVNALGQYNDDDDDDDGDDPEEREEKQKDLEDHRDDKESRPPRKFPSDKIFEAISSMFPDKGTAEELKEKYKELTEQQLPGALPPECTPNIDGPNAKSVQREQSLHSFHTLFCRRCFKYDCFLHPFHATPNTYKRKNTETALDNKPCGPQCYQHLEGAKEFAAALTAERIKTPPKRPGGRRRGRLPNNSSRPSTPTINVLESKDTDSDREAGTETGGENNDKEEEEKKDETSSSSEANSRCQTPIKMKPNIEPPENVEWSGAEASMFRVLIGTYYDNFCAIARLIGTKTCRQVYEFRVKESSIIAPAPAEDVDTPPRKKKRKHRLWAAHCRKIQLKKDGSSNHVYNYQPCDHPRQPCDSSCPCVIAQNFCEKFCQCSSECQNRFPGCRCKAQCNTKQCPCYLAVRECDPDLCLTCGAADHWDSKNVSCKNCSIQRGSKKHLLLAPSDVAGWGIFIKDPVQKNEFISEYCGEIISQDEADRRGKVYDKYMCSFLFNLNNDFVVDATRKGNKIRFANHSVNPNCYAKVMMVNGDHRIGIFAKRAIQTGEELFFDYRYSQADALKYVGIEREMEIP
Chain of EZH2 (O75530 whole entry partner): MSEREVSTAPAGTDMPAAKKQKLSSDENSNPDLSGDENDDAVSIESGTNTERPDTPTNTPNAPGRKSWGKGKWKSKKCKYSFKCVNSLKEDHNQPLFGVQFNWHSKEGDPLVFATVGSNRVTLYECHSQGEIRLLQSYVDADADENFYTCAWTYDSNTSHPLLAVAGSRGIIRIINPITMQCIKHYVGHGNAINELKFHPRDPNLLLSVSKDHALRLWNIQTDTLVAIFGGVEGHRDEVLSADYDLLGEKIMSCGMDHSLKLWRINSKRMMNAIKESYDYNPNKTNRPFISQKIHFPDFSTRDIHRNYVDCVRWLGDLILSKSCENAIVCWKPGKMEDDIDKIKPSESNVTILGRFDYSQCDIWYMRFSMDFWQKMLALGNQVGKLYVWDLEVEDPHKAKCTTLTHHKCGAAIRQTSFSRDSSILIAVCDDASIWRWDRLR
Chain of EZH2 (Q15022 whole entry partner): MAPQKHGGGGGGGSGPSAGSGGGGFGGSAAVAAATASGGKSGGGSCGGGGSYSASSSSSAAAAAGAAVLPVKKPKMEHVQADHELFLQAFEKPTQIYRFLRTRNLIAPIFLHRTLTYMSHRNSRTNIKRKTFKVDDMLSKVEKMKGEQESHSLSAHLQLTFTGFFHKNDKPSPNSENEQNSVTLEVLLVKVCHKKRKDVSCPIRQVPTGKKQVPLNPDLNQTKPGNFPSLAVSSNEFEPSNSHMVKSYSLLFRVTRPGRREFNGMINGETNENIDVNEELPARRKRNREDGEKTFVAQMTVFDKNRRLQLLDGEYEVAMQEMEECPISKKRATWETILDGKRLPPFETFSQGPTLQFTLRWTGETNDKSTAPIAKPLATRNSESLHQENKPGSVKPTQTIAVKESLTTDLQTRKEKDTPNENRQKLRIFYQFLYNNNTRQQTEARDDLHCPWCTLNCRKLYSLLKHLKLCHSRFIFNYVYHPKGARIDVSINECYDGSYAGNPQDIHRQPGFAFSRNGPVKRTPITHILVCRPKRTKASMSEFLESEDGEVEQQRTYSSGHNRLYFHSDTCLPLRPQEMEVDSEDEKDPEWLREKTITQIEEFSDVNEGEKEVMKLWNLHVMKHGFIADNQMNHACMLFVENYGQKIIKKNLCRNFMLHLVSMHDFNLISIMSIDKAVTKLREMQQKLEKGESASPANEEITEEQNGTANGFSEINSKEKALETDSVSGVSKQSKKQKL
Chain of EZH2 (Q09028 whole entry partner): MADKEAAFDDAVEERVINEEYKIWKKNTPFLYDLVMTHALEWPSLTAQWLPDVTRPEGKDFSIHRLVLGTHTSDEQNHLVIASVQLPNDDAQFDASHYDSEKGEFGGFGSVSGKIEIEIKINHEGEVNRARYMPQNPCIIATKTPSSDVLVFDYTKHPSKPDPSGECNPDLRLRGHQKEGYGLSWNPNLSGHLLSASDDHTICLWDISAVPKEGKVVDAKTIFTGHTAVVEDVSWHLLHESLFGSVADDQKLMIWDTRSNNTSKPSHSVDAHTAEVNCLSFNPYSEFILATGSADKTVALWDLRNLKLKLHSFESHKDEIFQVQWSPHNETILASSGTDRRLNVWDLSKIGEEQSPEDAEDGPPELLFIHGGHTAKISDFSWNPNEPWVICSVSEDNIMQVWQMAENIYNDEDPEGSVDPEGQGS

With `CCN(c1cc(-c2ccc(CN3CCOCC3)cc2)cc(C(=O)NCc2c(C)cc(C)[nH]c2=O)c1C)C1CCOCC1` [EPZ-6438, N-((4,6-dimethyl-2-oxo-1,2-dihydropyridin-3-yl)methyl)-5-(ethyl(tetrahydro-2H-pyran-4-yl)amino)-4-methyl-4′-(morpholinomethyl)-[1,1′-biphenyl]-3-carboxamide], in assay [1], the “histone H3K27me3 (H3K27 trimethylation) in EVSAT DTPs treated with GDC-0908” value is on record as “effective in reducing H3K27 trimethylation; also recorded: inhibited”. The “histone H3K27me3 (H3K27 trimethylation) in PC9 DTPs treated with erlotinib” value in assay [2] is “effective in reducing H3K27 trimethylation; also recorded: inhibited”.
`CCCc1cc(C)[nH]c(=O)c1CNC(=O)c1cc(-c2ccnc(N3CCN(C)CC3)c2)cc2c1cnn2C(C)C` [Compound 6]: in assay [3], the IC50 is 174 ± 84 nM.
Consider `Cc1ccc(C(=O)NCCCCCC(=O)Nc2ccc(F)cc2N)cc1` [Compound G877], for which the “cell growth of PC9 DTP with erlotinib” value in assay [4] is “effective in reducing cell growth”.
Take `Nc1nccc2c1ncn2[C@@H]1C=C(CO)[C@@H](O)[C@H]1O` [DZNep, 3-deazaneplanocin A]: the results for the “cell killing compared to erlotinib alone” value in assay [5] (DZNep 0.625 uM with 1 μM erlotinib) and in assay [5] (DZNep 5 uM with 1 μM erlotinib) were 75.8% and 87.5%, respectively. For the same compound, the “effect by itself on PC9 DTP cell viability” value in [5] (DZNep 0.625 and 5 uM, without erlotinib) was “not effect”. The “cell viability in media alone” value in assay [5] (DZNep 0.625 to 10 uM, media alone) was “minimum impact”. For the same compound, the “PC9 DTP cell viability in combination with erlotinib” value in assay [5] (DZNep concentrations as low as 0.625 uM, 1 μM erlotinib) is listed as “very significantly decrease”. The “EZH2 levels and trimethylation of lysine 27 on histone H3” value in assay [6] is “deplete EZH2 levels and to inhibit trimethylation of lysine 27 on histone H3”.
For `Cc1cc(C)c(CNC(=O)c2cc(-c3ccnc(N4CCN(C)CC4)c3)cc3c2cnn3C(C)C)c(=O)[nH]1` [Compound 5], in assay [7], the Ki is 14 ± 5 nM. In assay [3], the IC50 is 2000 nM.
With `CC[C@H](C)n1cc(C)c2c(C(=O)NCc3c(C)cc(C)[nH]c3=O)cc(-c3ccc(N4CCNCC4)nc3)cc21` [GSK126, (S)-1-(sec-butyl)-N-((4,6-dimethyl-2-oxo-1,2-dihydropyridin-3-yl)methyl)-3-methyl-6-(6-(piperazin-1-yl)pyridin-3-yl)-1H-indole-4-carboxamide], in assay [8], the “cell growth of EVSAT DTP with PI3 kinase inhibitor” value is “effective in reducing cell growth in a dose dependent manner”. Besides, the “histone H3K27me3 (H3K27 trimethylation) in EVSAT DTPs treated with GDC-0908” value in [1] was “effective in reducing H3K27 trimethylation; also recorded: inhibited”. Moreover, the “cell growth of PC9 DTP with erlotinib” value in assay [9] was “effective in reducing cell growth in a dose dependent manner”. For the same compound, the “histone H3K27me3 (H3K27 trimethylation) in PC9 DTPs treated with erlotinib” value in assay [2] was “effective in reducing H3K27 trimethylation; also recorded: inhibited”.
Take `CC(/C=C/C(=O)NO)=C\[C@@H](C)C(=O)c1ccc(N(C)C)cc1` [TSA, Trichostatin A]: the “effect on radiotherapy drug tolerant cells” value in [10] is “significant effect and eliminated radiotherapy drug tolerant cells”. Moreover, the “tumor growth, TSA alone” value in assay [11] (TSA 0.5 mg/kg) was “no effect”. For the same compound, in [11] (TSA 0.5 mg/kg with erlotinib 50 then 35 mg/kg PO), the “tumor relapse, combination of erlotinib+TSA” value is on record as “substantial delay in tumor relapse”.
Take `Cc1cc(C)c(CNC(=O)c2cc(C3CC3)cc3c2cnn3C(C)C)c(=O)[nH]1` [Compound 2]: the Ki in assay [7] was 74 ± 11 nM. In addition, the half-inhibitory concentration (IC50) in [3] is 2510 nM.
For the compound `CCCc1cc(C)[nH]c(=O)c1CNC(=O)c1cc(-c2ccc(N3CCN(C)CC3)nc2)cc2c1cnn2C(C)C` [Compound 4], the Ki in assay [7] was 0.6 ± 0.05 nM. For the same compound, in assay [3], the IC50 was 79 ± 7 nM.
For `CC(=O)Nc1ccc(C(=O)Nc2cc(-c3cccs3)ccc2N)cc1` [Compound G946], in [4], the “cell growth of PC9 DTP with erlotinib” value is recorded as “effective in reducing cell growth”.
